Reference: US11932601B2, “Immunoregulatory agents” (FLEXUS BIOSCIENCES, INC., priority 2014, dated 2024)

What follows are compounds tested against T1, human IDO1 (Homo sapiens, UniProt P14902) (assay: HEK293 cells stably expressing human IDO1, IDO inhibition assay (kynurenine, Ehrlich reagent, absorbance 490 nm)). Conditions: 20 hours incubation, 500 nM reference standard = 100% inhibition, read-out: HEK Human IDO-1 Biological Activity (IC50).
T1 construct: expressed in transfected cells
T1 sequence (P14902 whole entry): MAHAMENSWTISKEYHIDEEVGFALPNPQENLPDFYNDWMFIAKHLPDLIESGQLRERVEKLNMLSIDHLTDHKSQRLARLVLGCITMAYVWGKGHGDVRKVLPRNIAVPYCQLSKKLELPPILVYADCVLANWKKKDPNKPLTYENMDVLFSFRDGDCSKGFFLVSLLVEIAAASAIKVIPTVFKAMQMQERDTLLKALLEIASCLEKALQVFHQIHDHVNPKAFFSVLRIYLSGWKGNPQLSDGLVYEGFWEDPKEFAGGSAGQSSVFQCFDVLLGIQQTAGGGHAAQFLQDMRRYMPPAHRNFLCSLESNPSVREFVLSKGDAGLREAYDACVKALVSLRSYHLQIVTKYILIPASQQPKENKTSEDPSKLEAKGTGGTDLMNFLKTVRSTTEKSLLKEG
Type: cell-based
Protocol: HEK293 cells were transfected with a pCDNA-based mammalian expression vector harboring human IDO1 cDNA (NM 002164.2) by electroporation. They were cultured in medium (DMEM with 10% FBS) containing 1 mg/ml G418 for two weeks. Clones of HEK293 cells that stably expressed human IDO1 protein were selected and expanded for IDO inhibition assay.
The human IDO1/HEK293 cells were seeded at 10,000 cells per 50 μL per well with RPMI/phenol red free media contains 10% FBS in a 384-well black wall clear bottom tissue culture plate (Matrix Technologies LLC) 100 nL of certain concentration of compound was then added to each well using ECHO liquid handling systems. The cells were incubated for 20 hours in 37° C. incubator with 5% CO2.
The compound treatments were stopped by adding Trichloroacetic Acid (Sigma-Aldrich) to a final concentration at 0.2%. The cell plate was further incubated at 50° C. for 30 minute. The equal volume supernatant […] and 0.2% (w/v) Ehrlich reagent (4-dimethylaminobenzaldehyde, Sigma-Aldrich) in glacial acetic acid were mixed in a new clear bottom 384-well plate. This plate was then incubated at room temperature for 30 minute. The absorbance at 490 nm was measured on Envision plate reader.
`Cc1cc(C2CCC(C(C)C(=O)Nc3ccc(Cl)cc3)CC2)ccn1` (single isomer, unassigned) [Example 309c, N-(4-chlorophenyl)-2-(4-(2-methylpyridin-4-yl)cyclohexyl) propanamide] was tested, and the IC50 was greater than 250 nM.
With `Cc1nccc(O[C@H]2CC[C@H](C(C)C(=O)Nc3ccc(Cl)cc3)CC2)c1Cl` (single isomer, unassigned) [Example 320, rac-2-((trans)-4-((3-chloro-2-methylpyridin-4-yl)oxy)cyclohexyl)-N-(4-chlorophenyl)propanamide] the IC50 was less than 50 nM.
`CC(C(=O)Nc1ccc(Cl)cc1)C1CCC(c2ccnc(C(F)(F)F)c2)CC1` (single isomer, unassigned) [Example 312c, N-(4-chlorophenyl)-2-(4-(2-(trifluoromethyl)pyridin-4-yl)cyclohexyl) propanamide] gave an IC50 of less than 50 nM.
`Cc1cc(C2CCC(C(C)C(=O)Nc3ccc(Cl)cc3)CC2)cc(C)n1` (single isomer, unassigned) [Example 308b, N-(4-chlorophenyl)-2-(4-(2,6-dimethylpyridin-4-yl)cyclohexyl) propanamide] was tested, and the IC50 was less than 50 nM.
`Cc1nccc(C2CCC(C(C)C(=O)Nc3ccc(Cl)cc3)CC2)c1C` (single isomer, unassigned) [Example 311f, N-(4-chlorophenyl)-2-(4-(2,3-dimethylpyridin-4-yl)cyclohexyl) propanamide] was tested, and the IC50 was less than 250 nM.
Compound `CC(C(=O)Nc1ccc(Cl)cc1)C1CCC(c2ccnc(C(F)(F)F)c2)CC1` (single isomer, unassigned) [Example 312a, N-(4-chlorophenyl)-2-(4-(2-(trifluoromethyl)pyridin-4-yl)cyclohexyl) propanamide] has an IC50 of less than 250 nM.
`Cc1nccc(C2CCC(C(C)C(=O)Nc3ccc(Cl)cc3)CC2)c1C` (single isomer, unassigned) [Example 311a, N-(4-chlorophenyl)-2-(4-(2,3-dimethylpyridin-4-yl)cyclohexyl) propanamide] gave an IC50 of less than 50 nM.
In the case of `CC(C(=O)Nc1ccc(Cl)cc1)C1CCC(c2ccncc2F)CC1` (single isomer, unassigned) [Example 318b, N-(4-chlorophenyl)-2-(4-(3-fluoropyridin-4-yl)cyclohexyl) propanamide], the IC50 is reported as less than 50 nM.
`CC(C(=O)Nc1ccc(Cl)cc1)C1CCC(c2ccncc2F)CC1` (stereo not drawn) [Example 318a, N-(4-chlorophenyl)-2-(4-(3-fluoropyridin-4-yl)cyclohexyl) propanamide] was tested, and the IC50 was less than 50 nM.
Compound `CC(C(=O)Nc1ccc(Cl)cc1)C1CCC(c2ccnc(C(F)(F)F)c2)CC1` (single isomer, unassigned) [Example 312b, N-(4-chlorophenyl)-2-(4-(2-(trifluoromethyl)pyridin-4-yl)cyclohexyl) propanamide] has an IC50 of less than 50 nM.
Work on `CC1(CC(=O)Nc2ccc(Cl)cc2)CCN(c2ccnc(C(F)(F)F)c2)CC1` [Example 321, N-(4-Chlorophenyl)-2-(4-methyl-1-(2-(trifluoromethyl)pyridin-4-yl)piperidin-4-yl)acetamide] yielded an IC50 of less than 250 nM.
In the case of `Cc1cnccc1C1CCC(C(C)C(=O)Nc2ccc(Cl)cc2)CC1` (single isomer, unassigned) [Example 313c, N-(4-chlorophenyl)-2-(4-(3-methylpyridin-4-yl)cyclohexyl) propanamide], the IC50 is reported as greater than 250 nM.
With `Cc1cc(C2CCC(C(C)C(=O)Nc3ccc(Cl)cc3)CC2)ccn1` (single isomer, unassigned) [Example 309d, N-(4-chlorophenyl)-2-(4-(2-methylpyridin-4-yl)cyclohexyl) propanamide] the IC50 was less than 50 nM.
For `COc1cc([C@H]2CC[C@@H]([C@H](C)C(=O)Nc3ccc(Cl)cc3)CC2)ccn1` (single isomer, unassigned) [Example 307c, N-(4-Chlorophenyl)-2-(4-(2-methoxypyridin-4-yl)cyclohexyl)propanamide], the IC50 was less than 50 nM.
`COc1cc(C2CCC(C(C)C(=O)Nc3ccc(Cl)cc3)CC2)ccn1` (stereo not drawn) [Example 307b, Cis- or trans-N-(4-Chlorophenyl)-2-(4-(2-methoxypyridin-4-yl)cyclohexyl)propanamide] gave an IC50 of less than 50 nM.
